Assay results published in patent US6887873B2, “Triazine derivatives and their application as antitelomerase agents” (Aventis Pharma S.A., priority 2001, dated 2005).

Key:
[1] = tested on: G-quadruplex of oligonucleotide GGGTTAGGGTTAGGGTTAGGG (3.5 repeats of the human telomereic motif); experiment: G-quadruplex stabilizing activity, fluorescence Tm (FAM+DABCYL oligonucleotide); assay type: binding
Description: The G-quadruplex stabilizing activity may be determined by a method using the formation of a complex with fluorescein of which the experimental protocol is described below.
All the nucleotides, modified or otherwise, were synthesized by Eurogentec SA, Seraing, Belgium. The oligonucleotide FAM+DABCYL carries the catalogue reference OL-0371-0802. It has the sequence: […] corresponding to 3.5 repeats of the human telomereic motif (strand rich in G). The fluorescein is attached to the 5′ end, the DABCYL to the 3′ end, by the chemical arms described by Eurogentec. The concentration of the samples is checked by spectrophotometry, recording the absorbance spectrum between 220 and 700 nm and using the molar extinction coefficient provided by the supplier.
All the experiments were carried out in a 10 mM sodium cacodylate buffer pH 7.6 containing 0.1 M lithium chloride (or sodium chloride). The absence of fluorescent contamination in the buffer was checked beforehand. The fluorescent oligonucleotide is added at the final concentration of 0.2 μM.
All the measurements of fluorescence were carried out on a Spex Fluorolog DM1B apparatus, using an excitation line width of 1.8 nm and an emission line width of 4.5 nm. The samples are placed in a microquartz cuvette of 0.2×1 cm. The temperature of the sample is controlled by an external water bath. The oligonucleotide alone was analysed at 20, 30, 40, 50, 60, 70 and 80° C. The emission spectra are recorded using an excitation wavelength of 470 nm. The excitation spectra are recorded using either 515 nm or 588 nm as emission wavelength. The spectra are corrected for the response of the instrument by reference curves. A high extinction (80-90%) of the fluorescence of fluorescein at room temperature is observed, in agreement with an intramolecular folding of the oligonucleotide at 20° C. in the form of a G-quadruplex, which induces juxtaposition of its 5′ and 3′ ends which are respectively linked to fluorescein and to DABCYL. This juxtaposition causes an already-described phenomenon of extinction of fluorescence which is used for “molecular beacons”.
An oligonucleotide stock solution at the strand concentration of 0.2 μM in 0.1 M LiCl, 10 mM cacodylate buffer, pH 7.6, is prepared beforehand, heated briefly at 90° C. and slowly cooled to 20° C., and then distributed in aliquots of 600 μl in the fluorescence cuvettes. 3 μl of water (for the control) or 3 μl of test product (stock at 200 μM, final concentration 1 μM) are then added and mixed. The samples are then allowed to incubate for at least 1 hour at 20° C. before each measurement. The use of longer incubation times (up to 24 hours) has no influence on the result obtained.
Each experiment allows the measurement of only one sample. The latter is first incubated at an initial temperature of 20° C., heated to 80° C. over 38 minutes, left for 5 minutes at 80° C. and then cooled to 20° C. over 62 minutes. During this time, the fluorescence is measured simultaneously at two emission wavelengths (515 nm and 588 nm) using 470 nm as excitation wavelength. A measurement is carried out every 30 seconds. The temperature of the water bath is recorded in parallel, and the fluorescence profile as a function of the temperature is reconstituted from these values. The fluorescence profiles are then normalized between 20° C. and 80° C., and the temperature for which the intensity of emission at 515 nm is the mean of those at high and low temperature is called Tm. Under these conditions, the Tm of the reference sample without addition of product is 44° C. in a lithium chloride buffer. This temperature is increased to more than 55° C. in a sodium chloride buffer. The addition of a G-quadruplex-stabilizing compound induces an increase in the Tm. This increase is judged to be significant if it is greater than 3°.

[2] = tested on: human telomerease (HL60 cell extract); experiment: Antitelomerease activity: extension of oligonucleotide TS followed by PCR amplification, with HL60 extract; assay type: biochemical; settings: read-out: TRAP IC50
Experimental: The antitelomerease biological activity is determined by the following experimental protocol:
The leukaemia line HL60 is obtained from ATCC (American Type Culture Collection, Rockville, USA). The cells are cultured in suspension in RPMI 1640 medium containing L-glutamine at 2 mM, penicillin 200 U/ml, streptomycin 200 μg/ml, gentamycin 50 μg/ml and supplemented with 10% heat-inactivated foetal calf serum.
An aliquot of 10^5 cells is centrifuged at 3000×G and the supernatant discarded. The cell pellet is resuspended by several successive pipettings in 200 μl of lysis buffer containing 0.5% CHAPS, 10 mM Tris-HCl, pH 7.5, 1 mM MgCl2, 1 mM EGTA, 5 mM β-mercaptoethanol, 0.1 mM PMSF and 10% glycerol and is stored in ice for 30 minutes. The lysate is centrifuged at 160,000×G for 20 minutes at 4° C. and 160 μl of supernatant are recovered. The proteins in the extract are assayed by the Bradford method. The extract is stored at −80° C.
The inhibition of the telomerease activity is determined by a protocol for extension of the oligonucleotide TS (^5′AATCGTTCGAGCAGAGTT^3′), in the presence of a cellular extract enriched in telomerease activity and compounds which are added at various concentrations (10, 1, 0.1 and 0.01 μM). The extension reaction is followed by a PCR amplification of the extension products with the aid of the oligonucleotides TS and CXext (^5′[…]^3′).
The reaction medium is prepared based on the following composition:
The oligonucleotides are obtained from Eurogentec (Belgium) and are stored at −20° C. at a stock concentration of 1 mg/ml in distilled water.
The reaction samples are assembled in 0.2 ml PCR tubes and one drop of paraffin oil is deposited on each of the reactions of the experiment before closing the tubes.
The reaction samples are then incubated in a Cetus 4800-type PCR apparatus under the following temperature conditions: • 15 minutes at 30° C., • 1 minute at 90° C., • followed by 30 cycles of, • 30 seconds at 94° C., • 30 seconds at 50° C., • and 1 minute 30 seconds at 72° C., • followed by a final cycle of 2 minutes at 72° C.
For each of the samples, an aliquot of 10 μl is pipetted under the oil layer and mixed with 5 μl of a loading buffer containing:
The samples are then analysed by electrophoresis on 12% acrylamide gel in a 1×TBE buffer for 1 hour at a voltage of 200 volts, with the aid of a Novex electrophoresis system.
The acrylamide gels are then dried on a sheet of Whatmann 3 mm paper at 80° C. for 1 hour.
The analysis and the quantification of the reaction products are carried out with the aid of an InstantImager apparatus (Pacard).
For each compound concentration tested, the results are expressed as percentage inhibition of the reaction and calculated from the untreated enzymatic control and from the enzyme-free sample (blank) according to the following formula: (compound value−blank value/enzymatic control value−blank value)×100.
The concentration of compound inducing a 50% inhibition of the telomerease reaction (IC50) is determined with the aid of a semilogarithmic graphical representation of the inhibition values obtained as a function of each of the compound concentrations tested.
A compound is considered to be active as an antitelomerease agent when the quantity inhibiting 50% of the telomerease reaction is in particular less than 5 μM.

SMILES	G4 delta Tm [1]	IC50 [2]
Cc1cc(N)c2cc(Nc3nc(NCc4ccc(Cl)cc4)nc(Nc4ccc5nc(C)cc(N)c5c4)n3)ccc2n1 [Example 67]	6.5 °C	430 nM
Cc1cc(N)c2cc(Nc3nc(Nc4ccc5nc(C)cc(N)c5c4)nc(N4CCN(CCOCCO)CC4)n3)ccc2n1 [Example 69]	18 °C	160 nM
Cc1cc(N)c2cc(Nc3nc(Nc4ccc5nc(C)cc(N)c5c4)nc(N4CCCCC4CN4CCCCC4)n3)ccc2n1 (stereo not shown) [Example 70]	9.5 °C	560 nM
Cc1cc(N)c2cc(Nc3nc(Nc4ccc5nc(C)cc(N)c5c4)nc(N4CCN(C(=O)C5CCCO5)CC4)n3)ccc2n1 (stereo not shown) [Example 72]	9.5 °C	210 nM
COCCN1CCN(c2nc(Nc3ccc4nc(C)cc(N)c4c3)nc(Nc3ccc4nc(C)cc(N)c4c3)n2)CC1 [Example 73]	9.5 °C	370 nM
Cc1cc(N)c2cc(Nc3nc(NCCN4CCN(Cc5ccccc5)CC4)nc(Nc4ccc5nc(C)cc(N)c5c4)n3)ccc2n1 [Example 74]	9.5 °C	140 nM
Cc1cc(N)c2cc(Nc3nc(Nc4ccc5nc(C)cc(N)c5c4)nc(N4CCN(CCN5CCCC5)CC4)n3)ccc2n1 [Example 75]	13.5 °C	50 nM
Cc1cc(N)c2cc(Nc3nc(Nc4ccc5nc(C)cc(N)c5c4)nc(N4CCCN(CCCN5CCCC5)CC4)n3)ccc2n1 [Example 76]	19 °C	110 nM
Cc1cc(N)c2cc(Nc3nc(Nc4ccc5nc(C)cc(N)c5c4)nc(N4CCN(CCN(C)C)CC4)n3)ccc2n1 [Example 88]	6 °C	110 nM
Cc1cc(N)c2cc(Nc3nc(NCCN4CCCCC4)nc(Nc4ccc5nc(C)cc(N)c5c4)n3)ccc2n1 [Example 90]	11 °C	370 nM
Cc1cc(N)c2cc(Nc3nc(NCCNC(C)C)nc(Nc4ccc5nc(C)cc(N)c5c4)n3)ccc2n1 [Example 91]	7 °C	370 nM
Cc1cc(N)c2cc(Nc3nc(Nc4ccc5nc(C)cc(N)c5c4)nc(Nc4cccc5ccc(C)nc45)n3)ccc2n1 [Example 98]	4 °C	350 nM
CCN(CC)CCOc1nc(Nc2ccc3nc(C)cc(N)c3c2)nc(Nc2ccc3nc(C)cc(N)c3c2)n1 [Example 106]	14.5 °C	280 nM
Cc1cc(N)c2cc(Nc3nc(Nc4ccc5nc(C)cc(N)c5c4)nc(Oc4cccc5ccccc45)n3)ccc2n1 [Example 107]	4.5 °C	370 nM
Cc1cc(N)c2cc(Nc3nc(Nc4ccc5nc(C)cc(N)c5c4)nc(Oc4ccc5ccccc5c4)n3)ccc2n1 [Example 108]	3 °C	370 nM
Cc1cc(C)nc(Oc2nc(Nc3ccc4nc(C)cc(N)c4c3)nc(Nc3ccc4nc(C)cc(N)c4c3)n2)n1 [Example 109]	4.5 °C	340 nM
Cc1cc(N)c2cc(Nc3nc(Nc4ccc5nc(C)cc(N)c5c4)nc(Oc4ccccn4)n3)ccc2n1 [Example 110]	20.5 °C	610 nM
Cc1cc(N)c2cc(Nc3nc(Nc4ccc5nc(C)cc(N)c5c4)nc(Oc4ncccn4)n3)ccc2n1 [Example 111]	23.5 °C	480 nM
COCCOc1nc(Nc2ccc3nc(C)cc(N)c3c2)nc(Nc2ccc3nc(C)cc(N)c3c2)n1 [Example 112]	15 °C	320 nM
COc1ccc(COc2nc(Nc3ccc4nc(C)cc(N)c4c3)nc(Nc3ccc4nc(C)cc(N)c4c3)n2)cc1 [Example 113]	6 °C	530 nM
Cc1cc(N)c2cc(Nc3nc(Nc4ccc5nc(C)cc(N)c5c4)nc(OCc4ccccn4)n3)ccc2n1 [Example 114]	13.5 °C	1260 nM
COc1cccc(Sc2nc(Nc3ccc4nc(C)cc(N)c4c3)nc(Nc3ccc4nc(C)cc(N)c4c3)n2)c1 [Example 122]	13.5 °C	370 nM
COC(=O)CSc1nc(Nc2ccc3nc(C)cc(N)c3c2)nc(Nc2ccc3nc(C)cc(N)c3c2)n1 [Example 125]	14.5 °C	360 nM
CCN(CC)CCSc1nc(Nc2ccc3nc(C)cc(N)c3c2)nc(Nc2ccc3nc(C)cc(N)c3c2)n1 [Example 130]	9 °C	300 nM
CCN(CCSc1nc(Nc2ccc3nc(C)cc(N)c3c2)nc(Nc2ccc3nc(C)cc(N)c3c2)n1)Cc1ccccc1 [Example 131]	4.5 °C	910 nM
Cc1cc(N)c2cc(Nc3nc(Nc4ccc5nc(C)cc(N)c5c4)nc(SCCN(C)C)n3)ccc2n1 [Example 132]	12.5 °C	400 nM
Cc1cc(N(C)C)c2cc(Nc3nc(Nc4ccc5nc(C)cc(N(C)C)c5c4)nc(Sc4ccc5ccccc5n4)n3)ccc2n1 [Example 133, 2,4-bis(4-dimethylamino-2-methylquinolin-6-yl)amino-6-(quinolin-2-yl)thio-[1,3,5]triazine]	25 °C	180 nM
Cc1cc(N)c2cc(Nc3nc(Nc4ccc5nc(C)cc(N)c5c4)nc(N4CCC(O)C4)n3)ccc2n1 (stereo not shown) [Example 153]	10 °C	410 nM
Cc1cc(N)c2cc(Nc3nc(Nc4ccc5nc(C)cc(N)c5c4)nc(N4CCN(CCO)CC4)n3)ccc2n1 [Example 154]	19 °C	200 nM
